Experimental data taken from ChEMBL document CHEMBL6177993, “De Novo 3-(Phenylcarbamoyl) Benzoate Analogues: Efficacy against Multidrug-Resistant S. aureus and Elucidation of the Biodistribution Profile” (J Med Chem, 2025).
In brackets after ≈: the same amount, converted by molar mass. Activity calls are given as the source filed them. The calls are words filed in the database; no cut-off is given here.

Columns and labels:
Klebsiella pneumoniae = assay: Antibacterial activity against Klebsiella pneumoniae BAA 1705 assessed as reduction in bacterial growth measured after 18 to 24 hrs by broth microdilution method; type: functional; details: time 18-24 hrs
Bacillus subtilis = assay: Antibacterial activity against Bacillus subtilis IITKSM1 assessed as reduction in bacterial growth measured after 18 to 24 hrs by broth microdilution method; type: functional; details: time 18-24 hrs
Acinetobacter baumannii = assay: Antibacterial activity against Acinetobacter baumannii BAA 1605 assessed as reduction in bacterial growth measured after 18 to 24 hrs by broth microdilution method; type: functional; details: time 18-24 hrs
Staphylococcus aureus [1] = assay: Antibacterial activity against Staphylococcus aureus ATCC 29213 assessed as reduction in bacterial growth measured after 18 to 24 hrs by broth microdilution method; type: functional; details: time 18-24 hrs
Enterococcus faecalis = assay: Antibacterial activity against Enterococcus faecalis ATCC 35550 assessed as reduction in bacterial growth measured after 18 to 24 hrs by broth microdilution method; type: functional; details: time 18-24 hrs
Escherichia coli = assay: Antibacterial activity against Escherichia coli ATCC 25922 assessed as reduction in bacterial growth measured after 18 to 24 hrs by broth microdilution method; type: functional; details: time 18-24 hrs
Pseudomonas aeruginosa = assay: Antibacterial activity against Pseudomonas aeruginosa ATCC 27853 assessed as reduction in bacterial growth measured after 18 to 24 hrs by broth microdilution method; type: functional; details: time 18-24 hrs
Staphylococcus aureus [2] = assay: Antibacterial activity against methicillin-resistant Staphylococcus aureus NRS 119 assessed as reduction in bacterial growth measured after 18 to 24 hrs by broth microdilution method; type: functional; details: time 18-24 hrs
Staphylococcus aureus [3] = assay: Antibacterial activity against methicillin-resistant Staphylococcus aureus NRS 186 assessed as reduction in bacterial growth measured after 18 to 24 hrs by broth microdilution method; type: functional; details: time 18-24 hrs
Staphylococcus aureus [4] = assay: Inhibition of biofilm in Staphylococcus aureus ATCC 29213 at 2 ug/ml measured after 12 hrs by crystal violet staining based analysis; type: functional, organism-based; details: dose 2.0 µg/ml
Staphylococcus aureus [5] = assay: Antibacterial activity against methicillin-resistant Staphylococcus aureus NRS 193 assessed as reduction in bacterial growth measured after 18 to 24 hrs by broth microdilution method; type: functional; details: time 18-24 hrs
Staphylococcus aureus [6] = assay: Antibacterial activity against vacomycin-resistant Staphylococcus aureus VRS 4 assessed as reduction in bacterial growth measured after 18 to 24 hrs by broth microdilution method; type: functional; details: time 18-24 hrs
Staphylococcus aureus [7] = assay: Antibacterial activity against methicillin-resistant Staphylococcus aureus NRS 192 assessed as reduction in bacterial growth measured after 18 to 24 hrs by broth microdilution method; type: functional; details: time 18-24 hrs
Staphylococcus aureus [8] = assay: Inhibition of biofilm in Staphylococcus aureus ATCC 29213 at 1 times MIC measured after 12 hrs by crystal violet staining based analysis relative to control; type: functional
Staphylococcus aureus [9] = assay: Antibacterial activity against methicillin-resistant Staphylococcus aureus NRS 129 assessed as reduction in bacterial growth measured after 18 to 24 hrs by broth microdilution method; type: functional; details: time 18-24 hrs
Staphylococcus aureus [10] = assay: Antibacterial activity against vacomycin-resistant Staphylococcus aureus VRS 1 assessed as reduction in bacterial growth measured after 18 to 24 hrs by broth microdilution method; type: functional; details: time 18-24 hrs
Staphylococcus aureus [11] = assay: Antibacterial activity against methicillin-resistant Staphylococcus aureus NRS 194 assessed as reduction in bacterial growth measured after 18 to 24 hrs by broth microdilution method; type: functional; details: time 18-24 hrs
Staphylococcus aureus [12] = assay: Antibacterial activity against methicillin-sensitive Staphylococcus aureus ATCC 29213 assessed as reduction in bacterial growth measured after 18 to 24 hrs by broth microdilution method; type: functional; details: time 18-24 hrs
Staphylococcus aureus [13] = assay: Antibacterial activity against vacomycin-resistant Staphylococcus aureus VRS 12 assessed as reduction in bacterial growth measured after 18 to 24 hrs by broth microdilution method; type: functional; details: time 18-24 hrs
Staphylococcus aureus [14] = assay: Inhibition of biofilm in Staphylococcus aureus ATCC 29213 at 2 times MIC measured after 12 hrs by crystal violet staining based analysis relative to control; type: functional
Staphylococcus aureus [15] = assay: Inhibition of biofilm in Staphylococcus aureus ATCC 29213 at 0.5 times MIC measured after 12 hrs by crystal violet staining based analysis relative to control; type: functional
Staphylococcus aureus [16] = assay: Antibacterial activity against methicillin-resistant Staphylococcus aureus NRS 100 assessed as reduction in bacterial growth measured after 18 to 24 hrs by broth microdilution method; type: functional; details: time 18-24 hrs
Staphylococcus aureus [17] = assay: Antibacterial activity against methicillin-resistant Staphylococcus aureus NRS 198 assessed as reduction in bacterial growth measured after 18 to 24 hrs by broth microdilution method; type: functional; details: time 18-24 hrs
Staphylococcus aureus [18] = assay: Antibacterial activity against methicillin-resistant Staphylococcus aureus NRS 191 assessed as reduction in bacterial growth measured after 18 to 24 hrs by broth microdilution method; type: functional; details: time 18-24 hrs
Staphylococcus aureus [19] = assay: Antibacterial activity against Staphylococcus aureus assessed as reduction in bacterial growth; type: functional
Staphylococcus aureus [20] = assay: Bactericidal activity against Staphylococcus aureus ATCC 29213 at 4 to 8 time MIC measured after 8 hrs by time-kill assay; type: functional, organism-based

SMILES | MIC (Klebsiella pneumoniae) | MIC (Bacillus subtilis) | MIC (Acinetobacter baumannii) | MIC (Staphylococcus aureus [1]) | MIC (Enterococcus faecalis) | MIC (Escherichia coli) | MIC (Pseudomonas aeruginosa) | other results
O=C(O)c1cccc(C(=O)Nc2c(C(c3ccccc3)c3ccccc3)cc(OC(F)F)cc2C(c2ccccc2)c2ccccc2)c1 | > 64 µg/mL | 1 µg/mL (≈ 1.56 µM) | > 64 µg/mL | 4 µg/mL (≈ 6.25 µM) | 2 µg/mL (≈ 3.13 µM) | > 64 µg/mL | > 64 µg/mL | 
O=C(O)c1cccc(C(=O)Nc2c(C(c3ccccc3)c3ccccc3)cc(C(c3ccccc3)c3ccccc3)cc2C(c2ccccc2)c2ccccc2)c1 | > 64 µg/mL | 64 µg/mL (≈ 86.5 µM) | > 64 µg/mL | > 64 µg/mL | 8 µg/mL (≈ 10.8 µM) | > 64 µg/mL | > 64 µg/mL | 
O=C(O)c1cccc(C(=O)Nc2c(C(c3ccccc3)c3ccccc3)cc(Cl)cc2C(c2ccccc2)c2ccccc2)c1 | > 64 µg/mL | 2 µg/mL (≈ 3.29 µM) | > 64 µg/mL | 2 µg/mL (≈ 3.29 µM) | 1 µg/mL (≈ 1.64 µM) | > 64 µg/mL | > 64 µg/mL | MIC (Staphylococcus aureus [2]): 4 µg/mL (≈ 6.58 µM); MIC (Staphylococcus aureus [3]): 4 µg/mL (≈ 6.58 µM); inhibition (Staphylococcus aureus [4]): Active; MIC (Staphylococcus aureus [5]): 8 µg/mL (≈ 13.2 µM); MIC (Staphylococcus aureus [6]): 4 µg/mL (≈ 6.58 µM); MIC (Staphylococcus aureus [7]): 4 µg/mL (≈ 6.58 µM); inhibition (INH) (Staphylococcus aureus [8]): 96%; MIC (Staphylococcus aureus [9]): 4 µg/mL (≈ 6.58 µM); MIC (Staphylococcus aureus [10]): 4 µg/mL (≈ 6.58 µM); MIC (Staphylococcus aureus [11]): 8 µg/mL (≈ 13.2 µM); MIC (Staphylococcus aureus [12]): 4 µg/mL (≈ 6.58 µM); MIC (Staphylococcus aureus [13]): 4 µg/mL (≈ 6.58 µM); inhibition (INH) (Staphylococcus aureus [14]): 95%; inhibition (INH) (Staphylococcus aureus [15]): >50%; MIC (Staphylococcus aureus [16]): 4 µg/mL (≈ 6.58 µM); MIC (Staphylococcus aureus [17]): 8 µg/mL (≈ 13.2 µM); MIC (Staphylococcus aureus [18]): 4 µg/mL (≈ 6.58 µM)
N=C(N)NCCC[C@H](NC(=O)[C@H](CCCNC(=N)N)NC(=O)[C@H](CCCNC(=N)N)NC(=O)Cn1cc(COc2ccccc2-c2ccc(-c3ccc(-c4ccccc4OCc4cn(CC(=O)N[C@@H](CCCNC(=N)N)C(=O)N[C@@H](CCCNC(=N)N)C(=O)N[C@@H](CCCNC(=N)N)C(N)=O)nn4)cc3)cc2)nn1)C(N)=O |  |  |  |  |  |  |  | MIC (Staphylococcus aureus [19]): 6.05 µg/mL (≈ 3.9 µM)
CC(c1ccccc1)c1cc(Cl)cc(C(C)c2ccccc2)c1NC(=O)c1cccc(C(=O)O)c1 (configuration not stated) | > 64 µg/mL | > 64 µg/mL | > 64 µg/mL | > 64 µg/mL | > 64 µg/mL | > 64 µg/mL | > 64 µg/mL | 
Cc1cc(C(c2ccccc2)c2ccccc2)c(NC(=O)c2cccc(C(=O)O)c2)c(C(c2ccccc2)c2ccccc2)c1 | > 64 µg/mL | 64 µg/mL (≈ 109 µM) | > 64 µg/mL | 4 µg/mL (≈ 6.81 µM) | 64 µg/mL (≈ 109 µM) | > 64 µg/mL | > 64 µg/mL | 
CCOc1cc(C(c2ccccc2)c2ccccc2)c(NC(=O)c2cccc(C(=O)O)c2)c(C(c2ccccc2)c2ccccc2)c1 | > 64 µg/mL | 1 µg/mL (≈ 1.62 µM) | > 64 µg/mL | 64 µg/mL (≈ 104 µM) | 64 µg/mL (≈ 104 µM) | > 64 µg/mL | > 64 µg/mL | 
NCCCC[C@H](N)C(=O)N[C@@H](Cc1ccccc1)CN(CC(=O)NCC12CC3CC(CC(C3)C1)C2)C(=O)CC12CC3CC(CC(C3)C1)C2 |  |  |  |  |  |  |  | MIC (Staphylococcus aureus [19]): 1.56 µg/mL (≈ 2.36 µM)
CCCCc1cc(C(c2ccccc2)c2ccccc2)c(NC(=O)c2cccc(C(=O)O)c2)c(C(c2ccccc2)c2ccccc2)c1 | > 64 µg/mL | 8 µg/mL (≈ 12.7 µM) | > 64 µg/mL | 16 µg/mL (≈ 25.4 µM) | 2 µg/mL (≈ 3.18 µM) | > 64 µg/mL | > 64 µg/mL | 
CN(C)c1ccc(O)c2c1C[C@H]1C[C@H]3[C@H](N(C)C)C(O)=C(C(N)=O)C(=O)[C@@]3(O)C(O)=C1C2=O [MINOCYCLINE] |  |  |  |  |  |  |  | MIC (Staphylococcus aureus [2]): > 64 µg/mL; MIC (Staphylococcus aureus [3]): 8 µg/mL (≈ 17.5 µM); MIC (Staphylococcus aureus [5]): > 64 µg/mL; MIC (Staphylococcus aureus [6]): > 64 µg/mL; MIC (Staphylococcus aureus [7]): 32 µg/mL (≈ 69.9 µM); MIC (Staphylococcus aureus [9]): 8 µg/mL (≈ 17.5 µM); MIC (Staphylococcus aureus [10]): > 64 µg/mL; MIC (Staphylococcus aureus [11]): 2 µg/mL (≈ 4.37 µM); MIC (Staphylococcus aureus [12]): 0.25 µg/mL (≈ 0.546 µM); MIC (Staphylococcus aureus [13]): 16 µg/mL (≈ 35 µM); MIC (Staphylococcus aureus [16]): > 64 µg/mL; MIC (Staphylococcus aureus [17]): 64 µg/mL (≈ 140 µM); MIC (Staphylococcus aureus [18]): 64 µg/mL (≈ 140 µM)
O=C(O)c1cccc(C(=O)Nc2c(C(c3ccccc3)c3ccccc3)cc(C(F)(F)F)cc2C(c2ccccc2)c2ccccc2)c1 | > 64 µg/mL | 1 µg/mL (≈ 1.56 µM) | > 64 µg/mL | > 64 µg/mL | 16 µg/mL (≈ 24.9 µM) | > 64 µg/mL | > 64 µg/mL | 
CN[C@H](CC(C)C)C(=O)N[C@H]1C(=O)N[C@@H](CC(N)=O)C(=O)N[C@H]2C(=O)N[C@H]3C(=O)N[C@H](C(=O)N[C@H](C(=O)O)c4cc(O)cc(O)c4-c4cc3ccc4O)[C@H](O)c3ccc(c(Cl)c3)Oc3cc2cc(c3O[C@@H]2O[C@H](CO)[C@@H](O)[C@H](O)[C@H]2O[C@H]2C[C@](C)(N)[C@H](O)[C@H](C)O2)Oc2ccc(cc2Cl)[C@H]1O [VANCOMYCIN] |  |  |  |  |  |  |  | Activity (Staphylococcus aureus [20]): Active; MIC (Staphylococcus aureus [6]): > 64 µg/mL; MIC (Staphylococcus aureus [10]): > 64 µg/mL; MIC (Staphylococcus aureus [13]): > 64 µg/mL
